Marks after values point to notes of the source that are not given here.
Assays:
[1] = system: cerebral edema of mice caused by closed cerebral trauma; assay: closed cerebral trauma model of mice, brain water content; format: in vivo, Kunming mice; settings: brain taken after 24 h
Procedure: There were 10 mice in each group.
The closed cerebral trauma model of mice being established after fasting for 16 hours, administering intravenously to each group, striping and taking the brain of mouse after 24 hours, weighing the wet weight, and drying at 70° C. for 24 hours, then weighing the dry weight, and calculating brainwater content; the brain water content which is higher than normal values indicates the cerebral edema.
The grouping method, administer method and model preparation were referred to example 2.

[2] = system: cerebral hemorrhage in rats induced by collagenase; assay: ICH model induced by collagenase: brain water content (BWC); format: in vivo, Wistar rats
Procedure: (§1) Animals are randomly divided into five groups: sham operation 24 h group; cerebral hemorrhage (Intracerebral Haemorrhage, ICH)+physiological saline group (model); ICH+piperphentonamine hydrochloride (JBTA, 2 mg/kg) group, called as high dose group (h); ICH+piperphentonamine hydrochloride (JBTA, 0.5 mg/kg) group, called as low dose group (1); ICH+nimodipine (Nim, 0.5 mg/kg) group. The last four groups are divided into 4 h, 8 h, 12 h, 24 h as four time subgroups respectively. Physiological saline solution, piperphentonamine hydrochloride and nimodipine are intravenously injected from rat tail before the ICH model is established for 30 minutes, once a day. Injecting slowly, the total amount of drug liquid is controlled in 1 ml/200 g body weight: physiological saline solution also being administered in 1 ml/200 g body weight. Each group has 7 Wistar rats.
Observing the influence of piperphentonamine hydrochloride on the brain water content of intracerebral hemorrhage in rats in 4 h, 8 h, 12 h, 24 h, the animals of the different groups is anesthetized by chloral hydrate at predetermined time point, and decollating and taking the brain rapidly, putting the brain tissue on a filter paper wetted by saline solution to prevent water evaporating. Removing the leptomeninges and blood, cutting and taking the front half portion of brain tissue centered by the hole for the insertion needle, weighing precisely (accurate to 0.1 mg). It is controlled in 5 min to take the brain to finish weigh. Then putting in 95° C. constant temperature oven for 24 h, weighing the dry weight. The brain water content is calculated according to Blliot formula: BWC=(wet weight−dry weight)/wet weight×100%.
(§2) Divide the animals randomly into five groups: sham operation (sham) 24 h group; ICH+normal saline group (model); ICH+piperphentonamine maleate (4 mg/kg) group, namely high dose group (h); ICH+piperphentonamine maleate (2 mg/kg) group, namely low dose group (1); ICH+nimodipine (0.5 mg/kg) group. The last four groups were divided into four time subgroup of 4 h, 8 h, 12 h and 24 h. Physiological solution, piperphentonamine maleate and nimodipine were injected intravenous from rat tail vein 30 minutes before the ICH model made, once a day. Inject slowly, the total amount of drug liquid was controlled in 1 ml/200 g body weight: normal saline was also administered in 1 ml/200 g body weight. Each group has seven Wistar rats.

[3] = system: cerebral hemorrhage in rats induced by collagenase; assay: cerebral hemorrhage (ICH) model induced by collagenase: neurology score; format: in vivo, Wistar rats
Procedure: as §1
The specific steps are as following: after the experimental rats are anesthetized by injecting chloral hydrate (350 mg/kg) in intraperitoneal, and being supinely immobilized in a stereotaxic instrument, and make the rat anterior fontanelle and posterior fontanelle in the same plane according to localization method reported by BAO Xinmin, etc. Being locally disinfected by iodine, incising in the midmost of scalp, scissoring the periosteum, exposing the anterior fontanelle, drilling a 1 mm diameter hole with thickness close to duramater in 3 mm left to the midline by number five needle. Inserting needle along the hole by the micro syringe fixed on a stereotaxic, the depth of needle insertion is 5.8 mm (i.e., the caudate nucleus position), slowly injecting collagenase VI 0.5 U. Injection time is 3 min, keeping for 5 min after injection, then pull the needle out, suturing the skin, and putting the rat into cage and feed. Inserting the needle and not injecting drugs in sham operation group, the remaining operations is the same as the above.
After animals wake up, scoring nerve function defect of each group immediately according to the grading classification standards of nerve defect reported by Bedersog (litter improved).
Choosing the animals with the score of 3 and more into the experiment, the animals are bred in different cages, eat and drink normally. Temperature is controlled in 20 to 25° C., score in 4 h, 8 h, 12 h, 24 h after establishment of the model.
as §2

[4] = system: ischemia reperfusion injury of mouse brain; assay: SOD activity, MDA and GSH content of brain homogenate after cerebral ischemia reperfusion; format: in vivo, Kunming mice
Procedure: Ischemia reperfusion method in the mouse and the administration method are the same as above. After ischemia reperfusion is completed, executing by decollating, removing the brain and making homogenate by phosphate buffer in 0° C., determining the activity of SOD by pyrogallol autoxidation method, the content of MDA by TBA method, and the content of GSH by DTNB method, quantitate the protein by Coomassie brilliant blue method.

[5] = system: infective brain edema of rats (pertussis bacteria liquid); assay: infective cerebral edema by pertussis bacteria liquid: brain water, sodium and potassium ion content; format: in vivo, SD rats; parameters: Na^+ / K^+: unit not given here; settings: pretreatment 0.5 mg/kg iv daily, two days; 4 h after bacteria liquid
human brain disease = assay: research in treating human brain diseases (no details); format: in vivo
[6] = system: cerebral hemorrhage in rats induced by collagenase; assay: ICH model induced by collagenase: NO in brain tissue by nitrate reductase method; format: in vivo, Wistar rats
Text: Rats in each group were anesthetized by chloral hydrate, decollated rapidly and the brain take were taken out. The brain tissue around the hole was cut and procured, weighed precisely, and made into a 10% tissue homogenate using a glass homogenizer in an ice bath environment with physiological saline as homogenized medium, the supernatant of which was taken to be determined the content of NO by nitrate reductase method.

[7] = 0.5 mg/kg iv 30 min before ICH, 4 h
[8] = 0.5 mg/kg iv 30 min before ICH, 8 h
[9] = 0.5 mg/kg iv 30 min before ICH, 12 h
[10] = 0.5 mg/kg iv 30 min before ICH, 24 h
[11] = 2 mg/kg iv 30 min before ICH, 4 h
[12] = 2 mg/kg iv 30 min before ICH, 8 h
[13] = 2 mg/kg iv 30 min before ICH, 12 h
[14] = 2 mg/kg iv 30 min before ICH, 24 h

`CN(CCC(=O)/C=C/c1ccc(O)cc1)CCc1ccc2c(c1)OCO2.Cl` [piperphentonamine hydrochloride, Piperphentonamine hydrochloride] was tested, and the “water content of cerebra (%)” value ([1]; 1 mg/kg iv) was 82.05 ± 7.57 %, the “water content of cerebra (%)” value ([1]; 2 mg/kg iv) was 78.67 ± 5.38 % and the “water content of cerebra (%)” value ([1]; 4 mg/kg iv) was 75.43 ± 8.38 %. For the same compound, the “brain water content (%)” value [2, 7] was 79.90 ± 0.84^Δ %, the “brain water content (%)” value [2, 8] was 81.19 ± 0.78^ΔΔ % and the “brain water content (%)” value [2, 9] was 82.70 ± 0.76^ΔΔ %. The “brain water content (%)” value [2, 10] was 84.98 ± 0.65^ΔΔ %, the “brain water content (%)” value [2, 11] was 79.29 ± 0.69 % and the “brain water content (%)” value [2, 12] was 79.73 ± 0.53^Δ** %. The “brain water content (%)” value [2, 13] was 80.75 ± 0.19^ΔΔ** %, the “brain water content (%)” value [2, 14] was 82.38 ± 0.73^ΔΔ** % and the neurological score [3, 7] was 4.5 ± 0.87. It also gave a neurological score [3, 8] of 4.29 ± 1.02, a neurological score [3, 9] of 3.65 ± 1.19 and a neurological score [3, 10] of 3.21 ± 1.61. For the same compound, the neurological score [3, 11] was 4.07 ± 0.74, the neurological score [3, 12] was 3.86 ± 1.19 and the neurological score [3, 13] was 2.36 ± 0.8*^Δ. For the same compound, the neurological score [3, 14] was 1.71 ± 0.57**^Δ, the GSH ([4]; 20 mg/kg) was 10.34 ± 3.17 mg/g pr and the MDA ([4]; 20 mg/kg) was 4.48 ± 1.03 nmol/g pr. The SOD ([4]; 20 mg/kg) was 0.34 ± 0.02 Ku/g pr, the GSH ([4]; 40 mg/kg) was 13.1 ± 4.34 mg/g pr and the MDA ([4]; 40 mg/kg) was 3.74 ± 0.67 nmol/g pr. For the same compound, the SOD ([4]; 40 mg/kg) was 0.37 ± 0.02 Ku/g pr, the GSH ([4]; 80 mg/kg) was 14.77 ± 4.61 mg/g pr and the MDA ([4]; 80 mg/kg) was 3.53 ± 0.76 nmol/g pr. The SOD ([4]; 80 mg/kg) was 0.42 ± 0.04 Ku/g pr, the “K^+” value [5] was 436.3 ± 43.9 and the “Na^+” value [5] was 181.1 ± 26.1. The “water content of brain (%)” value [5] was 69.8 ± 0.44^3) %, the “treating human brain and other diseases” value (human brain disease) was “obvious effect and clinical significance” and the NO ([6]; 2 mg/kg, ICH rat brain tissue) was 1.65 ± 0.03^Δ μmol/g pro. For the same compound, the “NO content in brain tissue” value ([6]; high and low dose groups (2, 0.5 mg/kg)) was “could decrease the NO content in brain tissue”.
